Test results: US11866518B2, “Bicyclic peptide ligands specific for TSLP” (BicycleTx Limited, priority 2020, dated 2024)
*1 amine or outer side, *2 acyl side, *3 side chain or, on linkers, in order; H or OH if unused. Where a SMILES comes first, the peptide text is derived from it. Bridges are numbered along the chain shown (N, C = ends). TATA = O=C(CC[*:1])N1CN(C(=O)CC[*:2])CN(C(=O)CC[*:3])C1

These molecules were tested against TSLP (Homo sapiens, UniProt Q969D9) (assay: Human TSLP Surface Plasmon Resonance (SPR) binding assay). Conditions: biotinylated human TSLP immobilized on streptavidin chip; 20° C.; steady-state or kinetic 1:1 fit; read-out: hTSLP SPR Kd.
Sequence of TSLP (Q969D9 29-159): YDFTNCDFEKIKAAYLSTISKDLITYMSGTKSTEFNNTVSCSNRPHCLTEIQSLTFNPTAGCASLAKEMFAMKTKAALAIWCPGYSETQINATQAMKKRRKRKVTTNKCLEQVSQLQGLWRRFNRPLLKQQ
Parameters: The resulting construct spCD33-6×HN-TEV-hTSLP(29-159)-Avi; 6xHN tag with TEV site (N, cleaved yes); made in house; host or cells: Expi293F cells
For `CC(C)C[C@@H]1NC(=O)[C@H](Cc2c[nH]c3ccccc23)NC(=O)[C@@H]2CSCCC(=O)N3CN(CN(C3)C(=O)CCSC[C@H](NC(=O)CNC(=O)[C@H](CC(=O)O)NC(=O)[C@H](C)N)C(=O)N[C@@H](CCC(=O)O)C(=O)N[C@@H](Cc3c[nH]c4ccccc34)C(=O)N[C@@H](CC(N)=O)C(=O)N[C@@H](Cc3c[nH]c4ccccc34)C(=O)N[C@@H](C)C(=O)N[C@@H](Cc3ccc(O)cc3)C(=O)N[C@@H](CC(=O)O)C(=O)N2)C(=O)CCSC[C@@H](C(=O)N[C@@H](C)C(N)=O)NC(=O)CNC1=O` [Example 201, ADG-(SEQ ID NO: 146)-A] (H-ADGCEWNWAYDCWLGCA-NH2; linker 4-12-16 via TATA; N-terminus and C-terminus assumed), the Kd was 170 nM. Work on `CSCC[C@@H]1NC(=O)[C@H](Cc2c[nH]c3ccccc23)NC(=O)[C@H](CCCCN)NC(=O)[C@@H](NC(=O)[C@@H](NC(=O)[C@H](CCC(=O)O)NC(=O)[C@H](C)N)[C@@H](C)O)CSCCC(=O)N2CN3CN(C2)C(=O)CCSC[C@H](NC(=O)[C@H](CC(=O)O)NC(=O)[C@H](Cc2ccc(O)cc2)NC(=O)[C@H](CCC(=O)O)NC(=O)[C@H](Cc2c[nH]c4ccccc24)NC1=O)C(=O)N[C@@H](Cc1c[nH]c2ccccc12)C(=O)N[C@@H](CC(C)C)C(=O)N[C@@H](CO)C(=O)N[C@H](C(=O)N[C@@H](C)C(N)=O)CSCCC3=O` [Example 204, AET-(SEQ ID NO: 149)-A] (H-AETCKWMWEYDCWLSCA-NH2; linker 4-12-16 via TATA; N-terminus assumed) yielded a Kd of 100 nM. `CC[C@H](C)[C@H](NC(=O)[C@@H]1CCCN1C(=O)[C@H](C)NC(=O)[C@@H]1CSCCC(=O)N2CN3CN(C2)C(=O)CCSC[C@H](NC(=O)[C@H](CC(=O)O)NC(=O)[C@H](Cc2ccc(O)cc2)NC(=O)[C@H]([C@@H](C)O)NC(=O)[C@H](Cc2c[nH]c4ccccc24)NC(=O)[C@H](CC(N)=O)NC(=O)[C@H](Cc2c[nH]c4ccccc24)NC(=O)[C@H](CC(=O)O)NC(=O)[C@@H](NC(=O)[C@H](C)N)CSCCC3=O)C(=O)N[C@@H](Cc2c[nH]c3ccccc23)C(=O)N[C@@H](CC(C)C)C(=O)N[C@@H](CC(=O)O)C(=O)N1)C(N)=O` [Example 206, A-(SEQ ID NO: 151)-API] (H-ACDWNWTYDCWLDCAPI-NH2; linker 2-10-14 via TATA; N-terminus and C-terminus assumed) showed a Kd of 430 nM. Work on `CC(C)C[C@@H]1NC(=O)[C@H](Cc2c[nH]c3ccccc23)NC(=O)[C@@H]2CSCCC(=O)N3CN(CN(C3)C(=O)CCSC[C@@H](C(=O)N[C@@H](Cc3ccccc3)C(=O)N[C@@H](C)C(=O)N[C@@H](CCC(=O)O)C(N)=O)NC(=O)[C@@H]3CCCN3C1=O)C(=O)CCSC[C@H](NC(=O)[C@H](C)N)C(=O)N[C@@H](CC(=O)O)C(=O)N[C@@H](Cc1c[nH]c3ccccc13)C(=O)N[C@@H](CC(=O)O)C(=O)N[C@@H](Cc1c[nH]c3ccccc13)C(=O)N[C@@H](CC(=O)O)C(=O)N[C@@H](Cc1ccc(O)cc1)C(=O)N[C@@H](CC(=O)O)C(=O)N2` [Example 208, A-(SEQ ID NO: 153)-FAE] (H-ACDWDWDYDCWLPCFAE-NH2; linker 2-10-14 via TATA; N-terminus assumed) yielded a Kd of 340 nM. `CC(C)C[C@@H]1NC(=O)[C@H](Cc2c[nH]c3ccccc23)NC(=O)[C@@H]2CSCCC(=O)N3CN(CN(C3)C(=O)CCSC[C@H](NC(=O)[C@H](CCC(=O)O)NC(=O)[C@H](Cc3c[nH]cn3)NC(=O)[C@H](Cc3c[nH]cn3)NC(=O)[C@H](CCC(N)=O)NC(=O)[C@H](CCC(=O)O)NC(=O)[C@@H](N)CC(=O)O)C(=O)N[C@@H](CC(=O)O)C(=O)N[C@@H](Cc3c[nH]c4ccccc34)C(=O)N[C@@H](Cc3c[nH]cn3)C(=O)N[C@@H](Cc3c[nH]c4ccccc34)C(=O)N[C@@H](CCC(=O)O)C(=O)N[C@@H](Cc3ccc(O)cc3)C(=O)N[C@@H](CC(=O)O)C(=O)N2)C(=O)CCSC[C@@H](C(=O)N[C@@H](C)C(N)=O)NC(=O)[C@H](CO)NC1=O` [Example 209, DEQHHE-(SEQ ID NO: 144)-A] showed a Kd of 910 nM. For `CC(C)C[C@@H]1NC(=O)[C@H](Cc2c[nH]c3ccccc23)NC(=O)[C@@H]2CSCCC(=O)N3CN(CN(C3)C(=O)CCSC[C@H](NC(=O)[C@@H]3CCCN3C(=O)[C@@H]3CCCN3C(=O)[C@H](CCC(=O)O)NC(=O)[C@@H](NC(=O)[C@@H]3CCCN3C(=O)[C@@H](N)CO)[C@@H](C)O)C(=O)N[C@@H](CC(=O)O)C(=O)N[C@@H](Cc3c[nH]c4ccccc34)C(=O)N[C@@H](Cc3c[nH]cn3)C(=O)N[C@@H](Cc3c[nH]c4ccccc34)C(=O)N[C@@H](CCC(=O)O)C(=O)N[C@@H](Cc3ccc(O)cc3)C(=O)N[C@@H](CC(=O)O)C(=O)N2)C(=O)CCSC[C@@H](C(N)=O)NC(=O)[C@H](CO)NC1=O` [Example 215, SPTEPP-(SEQ ID NO: 144)], the Kd was 240 nM. Work on `CC(C)C[C@@H]1NC(=O)[C@H](Cc2c[nH]c3ccccc23)NC(=O)[C@@H]2CSCCC(=O)N3CN(CN(C3)C(=O)CCSC[C@H](NC(=O)[C@H](CCC(=O)O)NC(=O)[C@H](CO)NC(=O)[C@@H]3CCCN3C(=O)[C@H](CO)NC(=O)[C@H](CCCNC(=N)N)NC(=O)[C@@H](N)CC(N)=O)C(=O)N[C@@H](CC(=O)O)C(=O)N[C@@H](Cc3c[nH]c4ccccc34)C(=O)N[C@@H](Cc3c[nH]cn3)C(=O)N[C@@H](Cc3c[nH]c4ccccc34)C(=O)N[C@@H](CCC(=O)O)C(=O)N[C@@H](Cc3ccc(O)cc3)C(=O)N[C@@H](CC(=O)O)C(=O)N2)C(=O)CCSC[C@@H](C(N)=O)NC(=O)[C@H](CO)NC1=O` [Example 217, NRSPSE-(SEQ ID NO: 144)] yielded a Kd of 860 nM. `CC(=O)N[C@H]1CSCCC(=O)N2CN3CN(C2)C(=O)CCSC[C@H](NC(=O)[C@H](CC(=O)O)NC(=O)[C@H](Cc2ccc(O)cc2)NC(=O)[C@H](CCC(=O)O)NC(=O)[C@H](Cc2c[nH]c4ccccc24)NC(=O)[C@H](Cc2c[nH]cn2)NC(=O)[C@H](Cc2c[nH]c4ccccc24)NC(=O)[C@H](CC(=O)O)NC1=O)C(=O)N[C@@H](Cc1c[nH]c2ccccc12)C(=O)N[C@@H](CC(C)C)C(=O)N[C@@H](CO)C(=O)N[C@H](C(N)=O)CSCCC3=O` [Example 218, Ac-(SEQ ID NO: 144)] showed a Kd of 2000 nM. Molecule `CC(C)C[C@@H]1NC(=O)[C@H](Cc2c[nH]c3ccccc23)NC(=O)[C@@H]2CSCCC(=O)N3CN(CN(C3)C(=O)CCSC[C@H](NC(=O)[C@H](CC(=O)O)NC(=O)[C@H](CC(N)=O)NC(=O)[C@H](C)N)C(=O)N[C@@H](C(C)C)C(=O)N[C@@H](Cc3c[nH]c4ccccc34)C(=O)N[C@@H](Cc3c[nH]cn3)C(=O)N[C@@H](Cc3c[nH]c4ccccc34)C(=O)N[C@@H](CCC(=O)O)C(=O)N[C@@H](Cc3ccc(O)cc3)C(=O)N[C@@H](CC(=O)O)C(=O)N2)C(=O)CCSC[C@@H](C(=O)N[C@@H](C)C(N)=O)NC(=O)[C@H](CC(=O)O)NC1=O` [Example 220, AND-(SEQ ID NO: 154)-A] (H-ANDCVWHWEYDCWLDCA-NH2; linker 4-12-16 via TATA; N-terminus and C-terminus assumed) has a Kd of 340 nM. With `CSCC[C@H](NC(=O)[C@H](CC(=O)O)NC(=O)CNC(=O)[C@@H]1CSCCC(=O)N2CN3CN(C2)C(=O)CCSC[C@H](N)C(=O)N[C@@H](CC(=O)O)C(=O)N[C@@H](Cc2c[nH]c4ccccc24)C(=O)N[C@@H](Cc2c[nH]cn2)C(=O)N[C@@H](Cc2c[nH]c4ccccc24)C(=O)N[C@@H](CCC(=O)O)C(=O)N[C@@H](Cc2ccc(O)cc2)C(=O)N[C@@H](CC(=O)O)C(=O)N[C@@H](CSCCC3=O)C(=O)N[C@@H](Cc2c[nH]c3ccccc23)C(=O)N[C@@H](CC(C)C)C(=O)N[C@@H](CO)C(=O)N1)C(=O)N[C@@H](CO)C(=O)N[C@H](C(=O)N[C@@H](CO)C(N)=O)C(C)C` [Example 222, (SEQ ID NO: 144)-GDMSVS] the Kd was 450 nM. `CSCC[C@H](NC(=O)[C@H](CCC(=O)O)NC(=O)[C@H](CC(N)=O)NC(=O)[C@H](CC(=O)O)NC(=O)[C@H](Cc1ccc(O)cc1)NC(=O)[C@@H]1CSCCC(=O)N2CN3CN(C2)C(=O)CCSC[C@H](N)C(=O)N[C@@H](CC(=O)O)C(=O)N[C@@H](Cc2c[nH]c4ccccc24)C(=O)N[C@@H](Cc2c[nH]cn2)C(=O)N[C@@H](Cc2c[nH]c4ccccc24)C(=O)N[C@@H](CCC(=O)O)C(=O)N[C@@H](Cc2ccc(O)cc2)C(=O)N[C@@H](CC(=O)O)C(=O)N[C@@H](CSCCC3=O)C(=O)N[C@@H](Cc2c[nH]c3ccccc23)C(=O)N[C@@H](CC(C)C)C(=O)N[C@@H](CO)C(=O)N1)C(=O)N[C@@H](CO)C(N)=O` [Example 223, (SEQ ID NO: 144)-YDNEMS] gave a Kd of 3000 nM. In the case of `CC(C)C[C@@H]1NC(=O)[C@H](Cc2c[nH]c3ccccc23)NC(=O)[C@@H]2CSCCC(=O)N3CN(CN(C3)C(=O)CCSC[C@H](N)C(=O)N[C@@H](CC(=O)O)C(=O)N[C@@H](Cc3c[nH]c4ccccc34)C(=O)N[C@@H](Cc3c[nH]cn3)C(=O)N[C@@H](Cc3c[nH]c4ccccc34)C(=O)N[C@@H](CCC(=O)O)C(=O)N[C@@H](Cc3ccc(O)cc3)C(=O)N[C@@H](CC(=O)O)C(=O)N2)C(=O)CCSC[C@@H](C(=O)N[C@@H](C)C(=O)N[C@@H](CC(N)=O)C(=O)N[C@@H](CO)C(=O)N[C@@H](CCC(=O)O)C(=O)N[C@@H](Cc2ccccc2)C(=O)N[C@@H](CCC(=O)O)C(N)=O)NC(=O)[C@H](CO)NC1=O` [Example 227, (SEQ ID NO: 144)-ANSEFE], the Kd is reported as 740 nM. Work on `CC(C)C[C@@H]1NC(=O)[C@H](Cc2c[nH]c3ccccc23)NC(=O)[C@@H]2CSCCC(=O)N3CN(CN(C3)C(=O)CCSC[C@H](N)C(=O)N[C@@H](CC(=O)O)C(=O)N[C@@H](Cc3c[nH]c4ccccc34)C(=O)N[C@@H](Cc3c[nH]cn3)C(=O)N[C@@H](Cc3c[nH]c4ccccc34)C(=O)N[C@@H](CCC(=O)O)C(=O)N[C@@H](Cc3ccc(O)cc3)C(=O)N[C@@H](CC(=O)O)C(=O)N2)C(=O)CCSC[C@@H](C(=O)NCC(=O)N[C@@H](C)C(=O)NCC(=O)N[C@@H](CCC(=O)O)C(=O)N[C@@H](CO)C(=O)N[C@@H](CO)C(N)=O)NC(=O)[C@H](CO)NC1=O` [Example 228, (SEQ ID NO: 144)-GAGESS] yielded a Kd of 2300 nM.
